Data as given in patent US20260042731A1, “(2,4-DICHLOROPHENOXY)ACETIC ACID ANALOGS” (CORTEVA AGRISCIENCE LLC, priority 2022, published 2026).
Read-outs that look alike come from different tables or passages of the source.

Assays:
[1] = test system: Common Lambsquarters (CHEAL); assay: Greenhouse post-emergence mixture trials, percent visual control; format: in vivo; settings: CHEAL, 21 DAA; for pest or weed control at 560 g/ha / pest or weed control at 1120 g/ha: Chenopodium album, post-emergence, 504 h; for pest or weed control at 1120 g/ha: read-out: % Control
[2] = test system: Corn (ZEAMX); assay: as above; format: in vivo; settings: ZEAMX, 21 DAA; for plant injury at 560 g/ha / plant injury at 1120 g/ha: Zea mays, post-emergence, 504 h; for plant injury at 560 g/ha: compound 560 g ae/ha
[3] = test system: Chenopodium album (CHEAL), common lambsquarters; assay: Postemergence herbicide evaluation, growth of Chenopodium album (CHEAL); format: in vivo; settings: Chenopodium album, post-emergence, percent reduction in plant size relative to untreated control, read-out: Ave. CHEAL; for pest or weed control at 280 g/ha: 280 g ae/ha; for pest or weed control at 560 g/ha: 560 g ae/ha
[4] = test system: Velvetleaf (ABUTH); assay: Greenhouse post-emergence mixture trials, percent visual control; format: in vivo; settings: ABUTH, 21 DAA; for pest or weed control at 560 g/ha / pest or weed control at 1120 g/ha: Abutilon theophrasti, post-emergence, 504 h; for pest or weed control at 560 g/ha: compound 560 g ae/ha; for pest or weed control at 1120 g/ha: compound 1120 g ae/ha, read-out: % Control
[5] = test system: weeds (ABUTH, AMATA, AMBEL, CHEAL, ERICA); assay: Postemergence herbicide evaluation, overall average % weed control across ABUTH, AMATA, AMBEL, CHEAL, ERICA; format: in vivo; settings: post-emergence, average over the five weeds, read-out: Overall Ave % Weed Control; for pest or weed control at 280 g/ha: 280 g ae/ha; for pest or weed control at 560 g/ha: 560 g ae/ha
[6] = test system: Abutilon theophrasti (ABUTH), velvetleaf; assay: Postemergence herbicide evaluation, growth of Abutilon theophrasti (ABUTH); format: in vivo; settings: Abutilon theophrasti, post-emergence, percent reduction in plant size relative to untreated control, read-out: AVE. ABUTH; for pest or weed control at 280 g/ha: 280 g ae/ha; for pest or weed control at 560 g/ha: 560 g ae/ha
[7] = test system: Amaranthus rudis (AMATA), tall water hemp; assay: Postemergence herbicide evaluation, growth of Amaranthus rudis (AMATA); format: in vivo; settings: Amaranthus tuberculatus, post-emergence, percent reduction in plant size relative to untreated control, read-out: Ave. AMATA; for pest or weed control at 280 g/ha: 280 g ae/ha; for pest or weed control at 560 g/ha: 560 g ae/ha
[8] = test system: Ambrosia artemisiifolia (AMBEL), common ragweed; assay: Postemergence herbicide evaluation, growth of Ambrosia artemisiifolia (AMBEL); format: in vivo; settings: Ambrosia artemisiifolia, post-emergence, percent reduction in plant size relative to untreated control, read-out: AVE. AMBEL; for pest or weed control at 280 g/ha: 280 g ae/ha; for pest or weed control at 560 g/ha: 560 g ae/ha
[9] = Volatility of compounds measured by thermogravimetric analysis (TGA); format: physicochemical
[10] = test system: glyphosate resistant Conyza canadensis (L.) (ERICA), horseweed; assay: Postemergence herbicide evaluation, growth of Conyza canadensis (ERICA); format: in vivo; settings: Erigeron canadensis, post-emergence, percent reduction in plant size relative to untreated control, read-out: Ave. ERICA; for pest or weed control at 280 g/ha: 280 g ae/ha; for pest or weed control at 560 g/ha: 560 g ae/ha
[11] = Trial Bridge 2, compound 560 g ae/ha + Saflufenacil 25 g ai or ae/ha
[12] = Trial Bridge 2, compound 560 g ae/ha + Saflufenacil 75 g ai or ae/ha
[13] = Trial Bridge 2, compound 560 g ae/ha + Trifludimoxazin 50 g ai or ae/ha
[14] = Trial Bridge 2, compound 1120 g ae/ha + Saflufenacil 25 g ai or ae/ha
[15] = Trial Bridge 2, compound 1120 g ae/ha + Saflufenacil 75 g ai or ae/ha
[16] = Trial Bridge 2, compound 1120 g ae/ha + Trifludimoxazin 12.5 g ai or ae/ha
[17] = Trial Bridge 2, compound 1120 g ae/ha + Trifludimoxazin 50 g ai or ae/ha
[18] = Trial Bridge 1, compound 560 g ae/ha, no mixing partner
[19] = Trial Bridge 1, compound 1120 g ae/ha, no mixing partner
[20] = Trial Bridge 1, compound 560 g ae/ha + Arylex 5 g ai or ae/ha
[21] = Trial Bridge 1, compound 560 g ae/ha + Mesotrione 150 g ai or ae/ha
[22] = Trial Bridge 1, compound 1120 g ae/ha + Glufosinate 600 g ai or ae/ha
[23] = Trial Bridge 1, compound 1120 g ae/ha + Mesotrione 150 g ai or ae/ha
[24] = compound 1120 g ae/ha, no mixing partner, Trial Bridge 3
[25] = no mixing partner, Trial Bridge 3
[26] = Trial Bridge 1, mixing partner none
[27] = Trial Bridge 2, no mixing partner

SMILES: O=C(COc1ccc(Cl)cc1Cl)NOCc1ccccc1 [Compound D8, N-(Benzyloxy)-2-(2,4-dichlorophenoxy)acetamide]
- % Control [1, 11]: 100%
- % Control [1, 12]: 100%
- % Control ([1]; Trial Bridge 2, compound 560 g ae/ha + Trifludimoxazin 12.5 g ai or ae/ha): 100%
- % Control [1, 13]: 100%
- % Control [1, 14]: 100%
- % Control [1, 15]: 100%
- % Control [1, 16]: 100%
- % Control [1, 17]: 100%
- % Control ([1]; Trial Bridge 3, compound 560 g ae/ha + Sulfentrazone 130 g ai/ha): 100%
- % Control ([1]; Trial Bridge 3, compound 560 g ae/ha + Sulfentrazone 347 g ai/ha): 100%
- % Control ([1]; Trial Bridge 3, compound 1120 g ae/ha + Sulfentrazone 130 g ai/ha): 100%
- pest or weed control at 560 g/ha ([1]; Trial Bridge 2, compound 560 g ae/ha, no mixing partner): 98%
- pest or weed control at 1120 g/ha ([1]; Trial Bridge 2, compound 1120 g ae/ha, no mixing partner): 100%
- pest or weed control at 560 g/ha ([1]; Trial Bridge 3, compound 560 g ae/ha, no mixing partner): 100%
- pest or weed control at 1120 g/ha ([1]; Trial Bridge 3, compound 1120 g ae/ha, no mixing partner): 100%
- pest or weed control at 560 g/ha [1, 18]: 95%
- pest or weed control at 1120 g/ha [1, 19]: 100%
- % Control [1, 20]: 100%
- % Control [1, 21]: 100%
- % Control [1, 18]: 95%
- % Control [1, 22]: 100%
- % Control [1, 23]: 100%
- % Control [2, 24]: 5%
- plant injury at 560 g/ha ([2]; Trial Bridge 1, no mixing partner): 5%
- plant injury at 1120 g/ha [2, 19]: 5%
- plant injury at 560 g/ha ([2]; Trial Bridge 2, mixing partner none): 5%
- plant injury at 560 g/ha [2, 25]: 10%
- plant injury at 1120 g/ha [2, 24]: 5%
- pest or weed control at 280 g/ha ([3]; 168 h, 7 DAA): 63%
- pest or weed control at 560 g/ha ([3]; 168 h, 7 DAA): 63%
- pest or weed control at 280 g/ha ([3]; 336 h, 14 DAA): 65%
- pest or weed control at 560 g/ha ([3]; 336 h, 14 DAA): 83%
- pest or weed control at 280 g/ha ([3]; 504 h, 21 DAA): 75%
- pest or weed control at 560 g/ha ([3]; 504 h, 21 DAA): 97%
- % Control ([4]; compound 560 g ae/ha + Sulfentrazone 130 g ai/ha, Trial Bridge 3): 100%
- % Control ([4]; compound 1120 g ae/ha + Sulfentrazone 130 g ai/ha, Trial Bridge 3): 100%
- % Control ([4]; compound 1120 g ae/ha + Sulfentrazone 347 g ai/ha, Trial Bridge 3): 100%
- pest or weed control at 560 g/ha [4, 25]: 90%
- pest or weed control at 1120 g/ha [4, 25]: 95%
- pest or weed control at 560 g/ha [4, 26]: 100%
- pest or weed control at 1120 g/ha [4, 26]: 100%
- pest or weed control at 560 g/ha [4, 27]: 100%
- pest or weed control at 1120 g/ha [4, 27]: 100%
- % Control [4, 20]: 100%
- % Control ([4]; Trial Bridge 1, compound 560 g ae/ha + Glyphosate 1120 g ai or ae/ha): 100%
- % Control [4, 21]: 100%
- % Control ([4]; Trial Bridge 1, compound 560 g ae/ha + diclosulam 35 g ai or ae/ha): 100%
- % Control ([4]; Trial Bridge 1, compound 1120 g ae/ha + Arylex 5 g ai or ae/ha): 100%
- % Control [4, 22]: 100%
- % Control ([4]; Trial Bridge 1, compound 1120 g ae/ha + Glyphosate 1120 g ai or ae/ha): 100%
- % Control [4, 23]: 100%
- % Control ([4]; Trial Bridge 1, compound 1120 g ae/ha + diclosulam 35 g ai or ae/ha): 100%
- % Control [4, 11]: 100%
- % Control [4, 12]: 100%
- % Control [4, 13]: 100%
- % Control [4, 14]: 100%
- % Control [4, 15]: 100%
- % Control [4, 16]: 100%
- % Control [4, 17]: 100%
- pest or weed control at 280 g/ha ([5]; 168 h, 7 DAA): 70%
- pest or weed control at 560 g/ha ([5]; 168 h, 7 DAA): 73%
- pest or weed control at 280 g/ha ([5]; 336 h, 14 DAA): 85%
- pest or weed control at 560 g/ha ([5]; 336 h, 14 DAA): 88%
- pest or weed control at 280 g/ha ([5]; 504 h, 21 DAA): 88%
- pest or weed control at 560 g/ha ([5]; 504 h, 21 DAA): 93%
- pest or weed control at 280 g/ha ([6]; 168 h, 7 DAA): 83%
- pest or weed control at 560 g/ha ([6]; 168 h, 7 DAA): 83%
- pest or weed control at 280 g/ha ([6]; 336 h, 14 DAA): 93%
- pest or weed control at 560 g/ha ([6]; 336 h, 14 DAA): 91%
- pest or weed control at 280 g/ha ([6]; 504 h, 21 DAA): 99%
- pest or weed control at 560 g/ha ([6]; 504 h, 21 DAA): 96%
- pest or weed control at 280 g/ha ([7]; 168 h, 7 DAA): 68%
- pest or weed control at 560 g/ha ([7]; 168 h, 7 DAA): 75%
- pest or weed control at 280 g/ha ([7]; 336 h, 14 DAA): 85%
- pest or weed control at 560 g/ha ([7]; 336 h, 14 DAA): 85%
- pest or weed control at 280 g/ha ([7]; 504 h, 21 DAA): 73%
- pest or weed control at 560 g/ha ([7]; 504 h, 21 DAA): 83%
- pest or weed control at 280 g/ha ([8]; 168 h, 7 DAA): 68%
- pest or weed control at 560 g/ha ([8]; 168 h, 7 DAA): 75%
- pest or weed control at 280 g/ha ([8]; 336 h, 14 DAA): 96%
- pest or weed control at 560 g/ha ([8]; 336 h, 14 DAA): 95%
- pest or weed control at 280 g/ha ([8]; 504 h, 21 DAA): 99%
- pest or weed control at 560 g/ha ([8]; 504 h, 21 DAA): 99%
- TGA Data (rate of weight loss, volatility) [9]: 0.04 µg/min
- pest or weed control at 280 g/ha ([10]; 168 h, 7 DAA): 68%
- pest or weed control at 560 g/ha ([10]; 168 h, 7 DAA): 70%
- pest or weed control at 280 g/ha ([10]; 336 h, 14 DAA): 88%
- pest or weed control at 560 g/ha ([10]; 336 h, 14 DAA): 85%
- pest or weed control at 280 g/ha ([10]; 504 h, 21 DAA): 95%
- pest or weed control at 560 g/ha ([10]; 504 h, 21 DAA): 92%
